Experimental data from PubChem BioAssay (NCI).
Several values for one entry are separate records, joined by “and”; a condition that tells them apart may be missing. Identical values can stand only once.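 All cell lines were grown in 96-well plates and treated with compound for 48 hours. Abbreviation: GI50, concentration required for 50% inhibition of growth. TGI: total growth inhibition.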

How the values were obtained:
Assay in all cases: NCI-60 cell line screen, 48 h
IGROV1 ovarian = test system: IGROV1 ovarian
K-562 leukemia = test system: K-562 leukemia
KM12 colon = test system: KM12 colon
T-47D breast = test system: T-47D breast

SMILES	TGI (IGROV1 ovarian) [µM]	TGI (K-562 leukemia) [µM]	TGI (KM12 colon) [µM]	TGI (T-47D breast)	GI50 (IGROV1 ovarian)	GI50 (KM12 colon)
CCOc1ccnc2c(OC)c(C)c3nc4ccccc4nc3c12	> 100	> 100	> 100	67 µM	–	–
Oc1ccccc1/C=N/N1C(=S)N(c2ccccc2)C(=Nc2ccccc2)C1=Nc1ccccc1	30.8	> 64.7	> 100	75.6 µM	–	–
CCOC1=NC(C(F)(F)F)(C(F)(F)F)N=C(/N=C(/N)N(C)C(C(C)C)P(=O)(OC(C)C)OC(C)C)O1 (configuration not stated)	> 100	> 100	> 100	> 100 µM	–	–
O=C(O)COc1cccc2ccccc(=O)c12	> 100	> 100	> 100	> 100 µM	–	–
[B]C(=O)NC(CC(C)C)C(=O)NC1c2ccsc2C(=O)C1O (configuration not stated) (tested in a mixture with another compound)	> 100	> 100	> 100	> 100 µM	–	–
C=C(C)[C@H]1C=C[C@@H](OC(C)=O)[C@@]2(COC(C)=O)[C@H](OC(=O)CCC)[C@H]3[C@@H](OC(C)=O)[C@@H](C)C[C@]3(O)C(=O)[C@@](C)(OC(C)=O)[C@H]12	> 100	> 100	> 100	89.7 µM	–	–
O=C1C=C(NCCc2ccc(O)cc2)C(=O)C=C1NCCc1ccc(O)cc1	> 100	> 100	> 100	> 100 µM	–	–
COC(=O)c1cc(OCc2cc(OCc3ccc(Br)cc3)cc(OCc3ccc(Br)cc3)c2)cc(OCc2cc(OCc3ccc(Br)cc3)cc(OCc3ccc(Br)cc3)c2)c1	–	> 100	> 100	> 100 µM	–	–
CN1CCN2CCN(C)CCN(CC1)CC2	> 100	> 100	> 100	> 100 µM	–	–
ClC1(Cl)C2CCOC21n1cnc2ccccc21 (configuration not stated)	> 100	> 100	> 100	> 100 µM	–	–
CNC(=S)c1nnsc1N	> 100	> 100	> 100	> 100 µM	–	–
CN(C)CCNc1nc2c(c(=O)n(C)c(=O)n2C)n1C	> 100	> 100	> 100	> 100 µM	–	–
COc1ccc(-c2c(C#N)c(N)n(C3OC(COC(C)=O)C(OC(C)=O)C(OC(C)=O)C3OC(C)=O)c(=S)c2C#N)cc1 (configuration not stated)	> 100	–	> 100	> 100 µM and 46.5 µM	> 100 µM and 31.6 µM	> 100 µM and 36.8 µM
NCCCCNCCCNC(=O)c1csc(-c2nc(CCN)sc2Cl)n1	> 100	> 100	> 100	> 100 µM	–	–
CC(C)N=C(NC#N)NS(=O)(=O)c1cnccc1NC1CCCCCCC1	> 100	> 100	> 100	> 100 µM	–	–
CCN(CC)C(=O)N1CN(c2ccccc2)C2(CCN(CCCC3(c4ccc(F)cc4)OCCO3)CC2)C1=O	–	–	31.1	> 100 µM	–	–
O=[N+]([O-])c1cc(C2ON=C(c3ccccc3)N2C23CC4CC(CC(C4)C2)C3)ccc1Cl (configuration not stated)	> 100	> 100	> 100	> 100 µM	–	–
N#C[C@H](c1nc2ccccc2[nH]1)c1nc2ccccc2nc1Cl	30.2	> 100	17.1	12.9 µM	–	–

SMILES	TGI (IGROV1 ovarian) [µM]	TGI (K-562 leukemia) [µM]	TGI (KM12 colon) [µM]	TGI (T-47D breast)	GI50 (IGROV1 ovarian)	GI50 (KM12 colon)
COC(=O)/C=C/[C@H]1[C@H](C)N1S(=O)(=O)c1ccc(C)cc1 (some centres not stated)	> 100	> 100	> 100	> 100 µM	–	–
NC(=O)NC(=O)c1cccc(C(=O)NC(N)=O)n1	–	> 100	> 100	> 100 µM	–	–
O=C(CCCN1CCC(Nc2ccc(F)cc2)(c2nnnn2C2CCCCC2)CC1)c1ccc(F)cc1	12.3	> 100	13.3	–	–	–
CC1(C)C/C=C\CCC(O)C(O)CCC(C)(C)C1=O (configuration not stated)	> 100	> 100	> 100	> 100 µM	–	–
Cc1ccc(S(=O)(=O)N/N=C2/C3CC4CCC2C4C3)cc1 (configuration not stated)	> 100	–	> 100	> 100 µM	–	–
CC1=NN(c2cccc(S(=O)(=O)O)c2)C2(C1)SCC(=O)N2c1nc2ccccc2s1 (configuration not stated)	> 100	> 100	> 100	> 100 µM	–	–
COC(=O)CC(c1ccccc1)C(C#N)(OP1(=O)OC(c2ccccc2)C(C)N1C)c1ccccc1 (configuration not stated)	> 100	> 100	> 100	> 100 µM	–	–
COc1ccc(/C=C2/C(=O)C(c3ccccc3)N(c3ccccc3)C2=O)cc1OC (configuration not stated)	2.28	–	> 10	> 10 µM	–	–
COc1cc(CNC(=O)CCCCCCCCCCSC#N)ccc1O	22.9	88.5	19.3	48.1 µM	–	–
CSc1cc(Cl)c(C)cc1S(=O)(=O)NC(=O)NNc1cnc2ccccc2n1	> 100	> 100	> 100	> 100 µM	–	–
Cc1nc2ccccc2n1Cc1ccc(NC(=S)NC2CCCCC2)cc1	> 100	> 100	> 100	> 82.3 µM	–	–
COC1=C2C[C@](OC)(C#CC=CC#CC2O)CC1(C)C (some centres not stated)	63.2	> 100	> 100	> 100 µM	–	–
CN1CCN(C(=S)N(C(=O)c2ccc(Cl)cc2)C2CCCCC2)CC1	> 100	> 100	> 100	> 100 µM	–	–
C[C@@H](Br)[C@@H]1CC[C@H]2c3[nH]c4ccccc4c3CCN2C1	77.8	38.6	28.5	61.2 µM	–	–
O=C1OCC(CN2CCC(n3c(=O)[nH]c4ccccc43)CC2)=C1c1ccccc1	51.1	> 100	31.2	24.6 µM	–	–
C=CCOC1=C(OC(C)=O)C(C2COC(C)(C)O2)OC1=O (configuration not stated)	> 100	35.9	44.3	39.7 µM	–	–
O=C(CN1CCOCC1)c1ccc2c(c1)oc(=O)n2CCN1CCCCC1	> 100	> 100	> 100	–	–	–
O=C1CCCC1C(O)(C(F)(F)Cl)C(F)(F)Cl (configuration not stated)	> 10	> 10	> 10	> 10 µM	–	–
